Test results: patent US20240067634A1, “INHIBITORS OF NEF DOWNMODULATION” (priority 2020, published 2024)
Like-named read-outs stand apart in the source and are kept apart here.

How the values were obtained:
HIV-1 Nef = target: T1, HIV-1 Nef (Human immunodeficiency virus 1, UniProt P03406); assay: Anti-Nef activity: reversal of Nef-dependent MHC-I HLA-A2 downmodulation, flow cytometry; type: cell-based
T1 sequence (P03406 2-206): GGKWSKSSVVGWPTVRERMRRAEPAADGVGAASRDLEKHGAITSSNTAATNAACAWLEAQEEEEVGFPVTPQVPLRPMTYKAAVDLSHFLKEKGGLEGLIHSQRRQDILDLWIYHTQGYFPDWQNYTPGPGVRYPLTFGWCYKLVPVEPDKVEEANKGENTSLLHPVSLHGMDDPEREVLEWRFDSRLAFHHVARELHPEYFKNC
Method: Determination of anti-Nef activity: To identify molecules with enhanced Nef inhibition, decreased toxicity and decreased inhibition of lysosomes, the analogs of the disclosure are screened initially for Nef inhibitory activity using a high throughput assay in HIV-1 infected CEM-A2 cells. These cells are infected with an HIV-1 reporter construct for 48 hours and then exposed to potential inhibitors for 24 hours. Cells are harvested and stained for flow cytometric analysis of HLA-A2 surface expression, and the fold downmodulation of HLA-A2 are calculated by comparing expression on uninfected cells to that on infected cells.
PBMCs is isolated from leukopaks, CD8-depleted, and stimulated with PHA.
To assess their toxicity, an MTT assay was used, which measures […] dehydrogenase activity. Metabolically active cells reduce MTT to MTT-formazan leading to a color change. For this analysis, PHA-activated primary human PBMCs were exposed to a range of concentrations of each drug continuously for 72 hours of culture.

[1] = target: V-ATPase-dependent lysosomal acidification; assay: cells; type: cell-based, human; settings: 24 hr Lysotracker IC50; 1000 nM set as activity threshold (FIG. 11-14); read-out: Lyso IC50
Source text: Determine effect on V-ATPase activity: Plecomacrolides are known inhibitors of V-ATPase that neutralize normally acidified lysosomes. […] Thus, analogs of the disclosure are further characterized by measuring their effects on lysosome acidification.
LysoTracker® is a fluorophore linked to a weak base that is partially protonated at neutral pH. This form of the probe is capable of freely permeating cell membranes of live cells. In acidic compartments, protonation creates a form that was impermeable causing the probe to accumulate inside the lysosome.

C57BL/6J mice = settings: cited from earlier work
C57BL/6J and BALB/c mice = settings: five consecutive doses at 12 mg/kg; cited from earlier work
[2] = test system: HIV-1 WT infected primary T cells; assay: In vitro flow cytometric anti-HIV-1 CTL killing assay; type: cell-based, human; settings: low dose CMA (0.5 nM in FIG. 8); anti-HIV-1 CTL clone
Method: Numbers are mean percent infected cell survival after a 4 hour incubation with a 2:1 effector:target (E:T) ratio of an anti-HIV-1 CTL clone recognizing Gag SL9 epitope (n=2).
Mean +/− standard deviation is shown n=2. E:T, effector:target.
Therefore, the effect of promising Nef inhibitor analogs is generated as disclosed herein on anti-HIV-1 CTL killing using the in vitro flow cytometric CTL killing assay developed previously (FIGS. 1 and 8 ? (Collins et al., 1998). These studies utilize CTL clones reactive against various HIV-1 epitopes known to be affected by Nef (Collins et al., 1998).

[3] = test system: Nef-dependent degradation of MHC-I and CD4; assay: Western blot of Nef-dependent protein degradation in sorted HIV-1 infected primary T cells; type: cell-based, human
[4] = HIV-1 infected primary T lymphocytes
[5] = intraperitoneal daily over three days, 10 mg/kg

Structure (SMILES) | IC50 (HIV-1 Nef; 24 hr Nef activity IC50, independent donors, 1000 nM set as activity threshold (FIG. 11-14)) [nM] | IC50 [1] [nM] | restoration of MHC-I HLA-A2 surface expression (HIV-1 Nef; [4]) | weight loss (C57BL/6J mice; 25 mg/kg, within 12 days of injection) [%] | body weight (C57BL/6J mice; [5]) | liver toxicity (C57BL/6J mice; [5]) | liver enzymes (C57BL/6J mice; intraperitoneal, 25 mg/kg) | overall body weight (C57BL/6J and BALB/c mice) | pancreatic islet cell size (C57BL/6J and BALB/c mice) | random blood glucose (C57BL/6J and BALB/c mice) | concentration with activity in restoring MHC-I HLA-A2 (HIV-1 Nef; HIV-1 infected primary T lymphocytes, FIG. 2) [pM] | CTL killing of HIV-1 WT infected primary T cells [2] | Nef-dependent degradation of MHC-I ([3]; antibody HC-10, FIG. 9) | Nef-mediated CD4 degradation ([3]; concentrations sufficient to reverse Nef-mediated degradation of MHC-I, FIG. 9) | IC50 (HIV-1 Nef) [nM]
C/C=C/[C@H]1O[C@@H]([C@@H](C)[C@H](O)[C@H](C)[C@H]2OC(=O)/C(OC)=C/C(C)=C/[C@@H](C)[C@@H](O)[C@@H](CC)[C@@H](O)[C@H](C)C/C(C)=C/C=C/[C@@H]2OC)C[C@@H](O)[C@@H]1C [21-Deoxy CMF, 21-deoxy concanamycin F] | 4.29 | 23.3 |  |  |  |  |  |  |  |  |  |  |  |  | 
CO/C1=C\C(C)=C\[C@@H](C)[C@@H](O)[C@@H](C)C/C(C)=C/C=C/[C@H](OC)[C@@H]([C@@H](C)[C@@H](O)[C@H](C)[C@@]2(O)C[C@@H](O)[C@H](C)[C@@H](C(C)C)O2)OC1=O [BafA1, Bafilomycin A1] |  | 45.2 | restore MHC-I HLA-A2 | 30 | maintained a normal weight | no evidence of liver toxicity | increases in liver enzymes indicative of liver damage | not affected | decrease in pancreatic islet cell size | did not cause significant variations |  |  |  |  | 
C/C=C/[C@H]1O[C@@](O)([C@@H](C)[C@H](O)[C@H](C)[C@H]2OC(=O)/C(OC)=C/C(C)=C/[C@@H](C)[C@@H](O)[C@@H](CC)[C@@H](O)[C@H](C)C/C(C)=C/C=C/[C@@H]2OC)C[C@@H](O[C@H]2C[C@@H](O)[C@H](OC(N)=O)[C@@H](C)O2)[C@@H]1C [CMA, Concanamycin A] |  | 0.977 | restore MHC-I HLA-A2 |  |  |  |  | not affected | decrease in pancreatic islet cell size | did not cause significant variations | ~100 | increases CTL killing | selectively reverses | did not significantly alter | 
C/C=C/C1OC(O)(C(C)C(O)C(C)C2OC(=O)/C(OC)=C/C(C)=C/C(C)C(O)C(CC)C(O)C(C)C/C(C)=C/C=C/C2OC)CC(OC(=O)/C=C/C(=O)NC2=C(O)CCC2=O)C1C (stereo not shown) [Virustomycin, reference compound] |  | 3.68 |  |  |  |  |  |  |  |  |  |  |  |  | 0.688
